Assay results published in ChEMBL document CHEMBL3259791, “Discovery of (E)-3-((styrylsulfonyl)methyl)pyridine and (E)-2-((styrylsulfonyl)methyl)pyridine derivatives as anticancer agents: synthesis, structure-activity relationships, and biological activities” (J Med Chem, 2014).
Each block holds one compound with its values, some of them ahead of it. Calls of active or inactive are those of the source. The calls are words filed in the database; no cut-off is given here.

Tests used:
[1] = tested on: MCF7; experiment: Antiproliferative activity against human MCF7 cells assessed as cell growth inhibition after 72 hrs by MTT assay; assay type: functional; conditions: MCF7, 72 h
[2] = tested on: A2780; experiment: Antiproliferative activity against human A2780 cells assessed as cell growth inhibition after 72 hrs by MTT assay; assay type: functional; conditions: A2780, 72 h
[3] = tested on: HCT-116; experiment: Antiproliferative activity against human HCT116 cells assessed as cell growth inhibition after 72 hrs by MTT assay; assay type: functional; conditions: HCT-116, 72 h
[4] = AUC (0 to t) in mouse at 10 mg/kg, po after 24 hrs; assay type: ADME, organism-based; parameters: time < 24 hr, dose 10 mg/kg, route oral; conditions: plasma
[5] = Cmax in mouse at 10 mg/kg, po after 24 hrs; assay type: ADME, organism-based; parameters: dose 10 mg/kg, route oral; conditions: in vivo
[6] = Elimination half life in mouse at 10 mg/kg, po after 24 hrs; assay type: ADME, organism-based; parameters: dose 10 mg/kg, route oral; conditions: in vivo, read-out: beta t1/2 (converted)
[7] = Oral bioavailability (0 to t) in mouse at 10 mg/kg after 24 hrs; assay type: ADME, organism-based; conditions: in vivo
[8] = Oral bioavailability (0 to infinity) in mouse at 40 mg/kg after 24 hrs; assay type: ADME, organism-based; conditions: in vivo
[9] = Oral bioavailability (0 to t) in mouse at 40 mg/kg after 24 hrs; assay type: ADME, organism-based; conditions: in vivo
[10] = tested on: HCT-116; experiment: Selectivity ratio of IC50 for human WI38 cells to IC50 for human HCT116 cells; assay type: functional
[11] = Dissociation constant, pKa of the compound by pH-metric method; assay type: physicochemical
[12] = tested on: PANC-1; experiment: Ratio of ON01910 IC50 to compound IC50 for human PANC1 cells; assay type: functional
[13] = tested on: A2780; experiment: Selectivity ratio of IC50 for human WI38 cells to IC50 for human A2780 cells; assay type: functional
[14] = tested on: HeLa; experiment: Antiproliferative activity against human HeLa cells assessed as cell growth inhibition after 72 hrs by MTT assay; assay type: functional
[15] = Elimination half life in mouse at 40 mg/kg, po after 24 hrs; assay type: ADME, organism-based; parameters: dose 40 mg/kg, route oral; conditions: in vivo, read-out: beta t1/2 (converted)
[16] = tested on: HCT-116; experiment: Ratio of ON01910 IC50 to compound IC50 for human HCT116 cells; assay type: functional
[17] = tested on: HeLa; experiment: Ratio of ON01910 IC50 to compound IC50 for human HeLa cells; assay type: functional
[18] = tested on: MCF7; experiment: Ratio of ON01910 IC50 to compound IC50 for ER positive human MCF7 cells; assay type: functional
[19] = tested on: MDA-MB-231; experiment: Ratio of ON01910 IC50 to compound IC50 for ER negative human MDA-MB-231 cells; assay type: functional
[20] = Cmax in mouse at 40 mg/kg, po after 24 hrs; assay type: ADME, organism-based; parameters: dose 40 mg/kg, route oral; conditions: in vivo
[21] = tested on: A2780; experiment: Ratio of ON01910 IC50 to compound IC50 for human A2780 cells; assay type: functional
[22] = tested on: WI-38; experiment: Selectivity ratio of IC50 for human WI38 cells to IC50 for ER negative human MDA-MB-231 cells; assay type: functional
[23] = Half life in rat liver microsomes; assay type: ADME
[24] = tested on: DU-145; experiment: Selectivity ratio of IC50 for human WI38 cells to IC50 for AR negative human DU145 cells; assay type: functional
[25] = Antiproliferative activity against human PANC1 cells assessed as cell growth inhibition after 72 hrs by MTT assay; assay type: functional; conditions: PANC-1, 72 h
[26] = Apparent permeability across apical to basolateral side in human Caco2 cells; assay type: ADME, cell-based; conditions: Caco-2
[27] = tested on: LNCaP; experiment: Selectivity ratio of IC50 for human WI38 cells to IC50 for AR positive human LNCAP cells; assay type: functional
[28] = tested on: DU-145; experiment: Ratio of ON01910 IC50 to compound IC50 for AR negative human DU145 cells; assay type: functional
[29] = tested on: MDA-MB-231; experiment: Antiproliferative activity against ER negative human MDA-MB-231 cells assessed as cell growth inhibition after 72 hrs by MTT assay; assay type: functional; conditions: MDA-MB-231, 72 h
[30] = Aqueous solubility of the compound by turbidimetric solubility assay; assay type: physicochemical; conditions: buffer
[31] = tested on: PANC-1; experiment: Selectivity ratio of IC50 for human WI38 cells to IC50 for human PANC1 cells; assay type: functional
[32] = tested on: HeLa; experiment: Selectivity ratio of IC50 for human WI38 cells to IC50 for human HeLa cells; assay type: functional
[33] = Apparent permeability across basolateral to apical side in human Caco2 cells; assay type: ADME, cell-based; conditions: Caco-2
[34] = tested on: WI-38; experiment: Antiproliferative activity against human WI38 cells assessed as cell growth inhibition after 72 hrs by MTT assay; assay type: functional; conditions: WI-38, 72 h
[35] = tested on: LNCaP; experiment: Ratio of ON01910 IC50 to compound IC50 for AR positive human LNCAP cells; assay type: functional
[36] = tested on: MCF7; experiment: Antiproliferative activity against ER positive human MCF7 cells assessed as cell growth inhibition after 72 hrs by MTT assay; assay type: functional; conditions: MCF7, 72 h
[37] = AUC (0 to t) in mouse at 40 mg/kg, po after 24 hrs; assay type: ADME, organism-based; parameters: time < 24 hr, dose 40 mg/kg, route oral; conditions: plasma
[38] = molecular target: Voltage-gated inwardly rectifying potassium channel KCNH2 (Homo sapiens, UniProt Q12809); experiment: Inhibition of human ERG expressed in CHO cells
Sequence of Voltage-gated inwardly rectifying potassium channel KCNH2 (Q12809 whole entry): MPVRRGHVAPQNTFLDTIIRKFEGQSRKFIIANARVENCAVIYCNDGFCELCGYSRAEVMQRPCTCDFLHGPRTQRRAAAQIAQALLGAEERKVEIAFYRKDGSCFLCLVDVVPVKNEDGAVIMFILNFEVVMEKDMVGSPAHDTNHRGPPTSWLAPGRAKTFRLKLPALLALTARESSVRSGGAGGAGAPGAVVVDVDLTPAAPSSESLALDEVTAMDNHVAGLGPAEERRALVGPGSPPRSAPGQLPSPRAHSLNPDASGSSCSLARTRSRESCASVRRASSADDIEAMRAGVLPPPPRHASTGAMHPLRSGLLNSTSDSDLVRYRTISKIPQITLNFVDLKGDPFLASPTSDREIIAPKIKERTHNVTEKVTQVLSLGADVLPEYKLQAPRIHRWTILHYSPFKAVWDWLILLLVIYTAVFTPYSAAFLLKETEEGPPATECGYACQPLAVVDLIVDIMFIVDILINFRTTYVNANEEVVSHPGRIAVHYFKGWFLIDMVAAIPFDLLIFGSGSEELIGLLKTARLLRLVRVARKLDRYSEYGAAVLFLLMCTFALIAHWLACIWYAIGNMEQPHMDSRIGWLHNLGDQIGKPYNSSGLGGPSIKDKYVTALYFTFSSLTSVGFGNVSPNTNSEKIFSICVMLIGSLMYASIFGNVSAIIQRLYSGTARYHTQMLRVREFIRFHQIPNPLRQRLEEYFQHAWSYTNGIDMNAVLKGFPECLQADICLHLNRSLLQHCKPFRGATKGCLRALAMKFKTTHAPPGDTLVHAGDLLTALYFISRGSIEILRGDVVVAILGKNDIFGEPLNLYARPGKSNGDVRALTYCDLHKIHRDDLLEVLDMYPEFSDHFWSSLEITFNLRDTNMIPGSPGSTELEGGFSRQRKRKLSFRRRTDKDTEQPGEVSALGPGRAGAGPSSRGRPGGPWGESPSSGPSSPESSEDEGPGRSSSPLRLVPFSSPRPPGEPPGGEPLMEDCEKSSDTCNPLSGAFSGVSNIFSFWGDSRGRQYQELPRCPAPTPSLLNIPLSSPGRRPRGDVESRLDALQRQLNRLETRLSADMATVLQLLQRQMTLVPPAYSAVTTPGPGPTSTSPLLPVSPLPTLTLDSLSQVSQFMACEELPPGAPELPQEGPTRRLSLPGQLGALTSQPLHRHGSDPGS

[39] = tested on: DU-145; experiment: Antiproliferative activity against AR negative human DU145 cells assessed as cell growth inhibition after 72 hrs by MTT assay; assay type: functional; conditions: DU-145, 72 h
[40] = Octanol-buffer partition coefficient, log D of the compound at pH 7.4 by shake-flask method; assay type: physicochemical
[41] = tested on: LNCaP; experiment: Antiproliferative activity against AR positive human LNCAP cells assessed as cell growth inhibition after 72 hrs by MTT assay; assay type: functional
[42] = tested on: MCF7; experiment: Selectivity ratio of IC50 for human WI38 cells to IC50 for ER positive human MCF7 cells; assay type: functional
[43] = tested on: HCT-116; experiment: Antitumor activity against human HCT116 cells xenografted in mouse assessed as delay in tumor growth at 33.3 mg/kg, ip daily 5 days/week for 2 weeks; assay type: functional, organism-based; parameters: dose 33.3 mg/kg
[44] = tested on: HCT-116; experiment: Antitumor activity against human HCT116 cells xenografted in mouse assessed as delay in tumor growth at 100 mg/kg, ip daily 5 days/week for 2 weeks; assay type: functional, organism-based; parameters: dose 100 mg/kg

Compound: COc1cc(OC)c(/C=C/S(=O)(=O)Cc2cnc(OC)c(NC(C)=O)c2)c(OC)c1
GI50 [1]: 7500 nM
GI50 [2]: 7100 nM
GI50 [3]: 8220 nM

Compound: COc1cc(OC)c(/C=C/S(=O)(=O)Cc2cnc(OC)c(NCC(=O)O)c2)c(OC)c1
GI50 [2]: 376 nM
GI50 [3]: 410 nM

Compound: COc1cc(OC)c(/C=C/S(=O)(=O)Cc2ccc(OC)c(NC(C)=O)n2)c(OC)c1
GI50 [1]: 660 nM
GI50 [2]: 500 nM
GI50 [3]: 320 nM

Compound: COc1cc(OC)c(/C=C/S(=O)(=O)Cc2cnc(OC)c([N+](=O)[O-])c2)c(OC)c1
GI50 [1]: 5220 nM
GI50 [2]: 7210 nM
GI50 [3]: 7430 nM

Compound: CCS(=O)(=O)Nc1cc(CS(=O)(=O)/C=C/c2c(OC)cc(OC)cc2OC)cnc1OC
GI50 [1]: > 10000 nM
GI50 [2]: > 10000 nM
GI50 [3]: > 10000 nM

The next lines start with results.

GI50 [1]: > 10000 nM
GI50 [3]: > 10000 nM
Compound: CCN(C(C)=O)c1cc(CS(=O)(=O)/C=C/c2c(OC)cc(OC)cc2OC)cnc1OC

AUC(0-t) at 24 h [4]: 1 µM·h
Cmax [5]: 400 nM
half-life [6]: 2.6 h
bioavailability [7]: 9%
Compound: COc1cc(OC)c(/C=C/S(=O)(=O)Cc2ccc(OC)c(NCC(=O)[O-])c2)c(OC)c1.[Na+] [RIGOSERTIB SODIUM]

bioavailability [8]: 100%
bioavailability [9]: 28%
pKa [11]: 2.39
GI50 [1]: 6 nM
GI50 [14]: 4 nM
half-life [15]: 61.8 h
Cmax [20]: 3000 nM
half-life [23]: 0.333 h
GI50 [2]: 5 nM
Papp A→B [26]: 42.3 ×10⁻⁶ cm/s
GI50 [29]: 6 nM
solubility kinetic [30]: > 100 µM
Papp B→A [33]: 21.5 ×10⁻⁶ cm/s
GI50 [3]: 5 nM
GI50 [36]: 6 nM
AUC(0-t) at 24 h [37]: 24.6 µM·h
GI50 [39]: 5 nM
logD [40]: 2.34
GI50 [41]: 3 nM
Compound: COc1cc(OC)c(/C=C/S(=O)(=O)Cc2cnc(OC)c(N)c2)c(OC)c1
Ratio IC50 [10]: >1400
Ratio IC50 [12]: 10
Ratio IC50 [13]: >1400
Ratio IC50 [16]: 10
Ratio IC50 [17]: 10
Ratio IC50 [18]: 10
Ratio IC50 [19]: 10
Ratio IC50 [21]: 10
Ratio IC50 [22]: >1400
Ratio IC50 [24]: >1400
GI50 [25]: < 1 nM
Ratio IC50 [27]: >1400
Ratio IC50 [28]: 10
Ratio IC50 [31]: >1400
Ratio IC50 [32]: >1400
GI50 [34]: > 10000 nM
Ratio IC50 [35]: 10
IC50 [38]: > 25000 nM
Ratio IC50 [42]: >1400

pKa [11]: 7.66
GI50 [1]: 780 nM
GI50 [14]: 682 nM
AUC(0-t) at 24 h [4]: 7.2 µM·h
Cmax [5]: 6300 nM
half-life [23]: 1.17 h
GI50 [2]: 317 nM
Papp A→B [26]: 8.9 ×10⁻⁶ cm/s
GI50 [29]: 671 nM
solubility kinetic [30]: > 100 µM
Papp B→A [33]: 47.1 ×10⁻⁶ cm/s
GI50 [3]: 570 nM
GI50 [36]: 780 nM
logD [40]: 1.52
half-life [6]: 3 h
Compound: COc1cc(OC)c(/C=C/S(=O)(=O)Cc2cnc(OC)c(NS(C)(=O)=O)c2)c(OC)c1
Activity [43]: Active
GI50 [25]: 875 nM
GI50 [34]: > 10000 nM
Activity [44]: Active
